Measurements as given in patent US20260248763A1 (BIO GENUINE (SHANGHAI) BIOTECH CO., LTD, priority 2023, published 2026).

Biological target: T1, OTR (Homo sapiens, UniProt P30559)
T1 construct: expressed in transfected cells; host or cells: OTR/HEK293 stably transfected cell line
T1 sequence (P30559 1-389): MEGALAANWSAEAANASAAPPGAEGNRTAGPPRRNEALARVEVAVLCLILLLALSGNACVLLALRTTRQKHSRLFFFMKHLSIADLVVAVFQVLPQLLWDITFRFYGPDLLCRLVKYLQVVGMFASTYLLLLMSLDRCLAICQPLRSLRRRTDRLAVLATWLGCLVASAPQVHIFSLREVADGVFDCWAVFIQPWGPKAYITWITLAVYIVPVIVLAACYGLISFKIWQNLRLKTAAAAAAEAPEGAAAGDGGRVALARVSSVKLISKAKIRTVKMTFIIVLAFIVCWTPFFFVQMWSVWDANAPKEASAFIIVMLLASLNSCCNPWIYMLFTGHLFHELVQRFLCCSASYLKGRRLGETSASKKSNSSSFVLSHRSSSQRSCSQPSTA
Test: Ca2+ mobilization in cells stably expressing OTR (FLIPR, antagonist mode)
Assay type: cell-based
Conditions: OTR/HEK293 stably transfected cell line
Text: Test Example 1. Determination of the Effect of the Compound of the Present Disclosure on Ca^2+ Mobilization in Cells Stably Expressing OTR
To measure the antagonistic effect of the compound of the present disclosure on OTR activity expressed in the OTR/HEK293 stably transfected cell line.
• DMEM medium (Invitrogen, 11965) • F12 medium (Invitrogen, 11765) • Fetal bovine serum (Excell, FSP500) • Geneticin (Invitrogen, 10131) • Penicillin/Streptomycin (Invitrogen, SV30010) • Fluo-4 Direct kit (Invitrogen, F10471) • 384-well cell plate (Greiner, 781090) • 384-well compound plate (Greiner, 781280)
• FLIPR instrument (Molecular Device) • EHCO instrument (Labcyte) • Cell counter (Beckman, Vi-cell XR)
The cultured cells were washed twice with pre-heated DPBS and digested with appropriate amount of trypsin at 37° C. for 1 minute, and then appropriate amount of culture medium was added to terminate digestion. The cells were centrifuged at 1000 rpm for 5 minutes. The supernatant was gently discarded without disturbing the cell pellet at the bottom. The cells were resuspended in culture medium and 1 mL was taken out for cell counting and viability assessment using Vi-CELL™. The cells were diluted to 1×10^6 cells/mL (20,000 cells/20 μL) with culture medium, seeded into a 384-well cell plate and incubated at 37° C. with 5% CO2 for 16-20 h.
Formulation of 250 mM Probenecid solution: according to the kit instructions, 1 mL of FLIPR buffer salt solution was added to 77 mg of probenecid, prepared fresh just before use. Formulation of Fluo-4 Direct™ (2×, 8 μM) loading buffer: according to the kit instructions, the required amount of Fluo-4 Direct™ was taken out and thawed in advance, 10 mL of FLIPR buffer salt solution and 0.2 mL of 250 mM Probenecid solution were added to each tube, and the mixture was vortexed in the dark for >5 minutes, prepared fresh just before use.
Preparation of agonist reference compound plate: the agonist was diluted 3-fold in 10 points using ECHO, and 750 nL was transferred to the corresponding compound plate using ECHO.
Preparation of reference and test compound plates: the test compound was diluted 3-fold in 10 points with ECHO, and 900 nL was transferred to the corresponding compound plate; the reference compound was diluted 3-fold in 10 points with assay buffer salt solution, and 30 μL was transferred to the compound plate.
30 μL of assay buffer salt solution was added to the corresponding compound plate, and the mixture was centrifuged at 1000 rpm for 1 minute.
The cell plate prepared the day before was taken out of the incubator, and 20 μL of 2×Fluo-4 Direct™ buffer was added to each well, with a total volume of 40 μL.
The plate was incubated in an incubator at 37° C. with 5% CO2 for 50 minutes, and then placed at room temperature for 10 minutes.
The compound plate, cell plate, and pipette tips were placed into the instrument.
For the agonist reference compound plate: the FLIPR instrument software was run, 10 μL of the pre-determined concentration of agonist reference compound was added to the cell plate following the preset protocol, and the fluorescence signal was read. After reading, the data were exported to calculate the EC80 for each cell line, and the agonist at 6×EC80 concentration was prepared.
For the compound plate: the FLIPR instrument software was run, 10 μL of the pre-determined concentration of test compound and the reference compound were added to the cell plate following the preset protocol, and the fluorescence signal was read. 10 μL of the reference compound agonist at 6×EC80 concentration was added to the cell plate, and the fluorescence signal was read. For antagonist detection of the compound, the data were exported using the “Max-Min” and “Read 1 to Maximum allowed” methods in the software, and the data were fitted using Prism.

Row | Compound | IC50 [nM]
1 | CO/N=C1/CC2(CO)CCC1N2C(=O)c1ccc(-c2ccccc2C)cc1 (single isomer, unassigned) [Example A0087] | 1080
2 | CON=C1CC(C(=O)NCC(O)c2ccccc2)N(C(=O)c2ccc(-c3cccc(C#N)c3C)cc2)C1 (single isomer, unassigned) [Example A0229, (25, E)-1-(3′-Cyano-2′-methyl-[1,1′-biphenyl]-4-carbonyl)-N-(2-hydroxy-2-phenethyl)-4-(methoxyimino)pyrrolidine-2-carboxamide] | 122
3 | CON=C1CC(C(=O)NCC(O)c2ccccc2)N(C(=O)c2ccc(-c3cccc(C#N)c3C)cc2)C1 (single isomer, unassigned) [Example A0233, (25, Z)-1-(3′-Cyano-2′-methyl-[1,1′-biphenyl]-4-carbonyl)-N-(2-hydroxy-2-phenethyl)-4-(methoxyimino)pyrrolidine-2-carboxamide] | 48.3
4 | CO/N=C1/C[C@@H](CO)N(C(=O)c2ccc(-c3ccc(C#N)cc3C)cc2)C1 (single isomer, unassigned) [Example C0093] | 1140
5 | CO/N=C1\CN(C(=O)c2ccc(-c3ccccc3C)cc2)C2(COC2)C1 [Example A0041, (Z)-(7-(Methoxyimino)-2-oxa-5-azaspiro[3.4]octan-5-yl)(2′-methyl-[1, 1′-biphenyl]-4-yl)methanone] | 575
6 | CON=C1C[C@@H](C2(O)CC2)N(C(=O)c2ccc(-c3ccccc3C)cc2)C1 [Example A0066, (S, EZ)-(2-(1-Hydroxycyclopropyl)-4-(methoxyimino)pyrrolidin-1-yl)(2′-methyl-[1,1′-biphenyl]-4-yl)methanone] | 197
7 | CO/N=C1\CN(C(=O)c2ccc(-c3ccccc3C)cc2)C(CO)(CO)C1 [Example A0083, (Z)-(2,2-Bis(hydroxymethyl)-4-(methoxyimino)pyrrolidin-1-yl)(2′-methyl-[1, 1′-biphenyl]-4-yl)methanone] | 539
8 | CON=C1C[C@@H](c2nc3ccccc3o2)N(C(=O)c2ccc(-c3ccccc3C)cc2)C1 [Example A0086, (S, EZ)-(2-(Benzo[d]oxazol-2-yl)-4-(methoxyimino)pyrrolidin-1-yl)(2′-methyl-[1, 1′-biphenyl]-4-yl)methanone] | 237
9 | CO/N=C1/CN(C(=O)c2ccc(-c3ccccc3C)cc2)C2(COC2)C1 [Example A0112, (E)-(7-(Methoxyimino)-2-oxa-5-azaspiro[3.4]octan-5-yl)(2′-methyl-[1, 1′-biphenyl]-4-yl)methanone] | 815
10 | CO/N=C1/C[C@@H](CO)N(C(=O)c2ccc(-c3cccc(C)c3C#N)cc2)C1 [Example A0130, (S, Z)-4′-(2-(Hydroxymethyl)-4-(methoxyimino)pyrrolidine-1-carbonyl)-3-methyl-[1,1′-biphenyl]-2-carbonitrile] | 647

Other lines, results leading:

Row | IC50 [nM] | Compound
11 | 1900 | CON=C1CN(C(=O)c2ccc(-c3ccccc3C)cc2)C2COCCN12 (mixture of isomers) [Example C0033, (EZ)-(3-(Methoxyimino)hexahydro-1H-imidazo[2,1-c][1,4]oxazin-1-yl)(2′-methyl-[1, 1′-biphenyl]-4-yl)methanone]
12 | 1740 | CON=C1C[C@@H](CNC(C)=O)N(C(=O)c2ccc(-c3ccccc3C)cc2)C1 (single isomer, unassigned) [Example C0006]
13 | 367 | CON=C1C[C@@H](CO)N(C(=O)c2ncc(-c3cccc(C)c3C)nn2)C1 (single isomer, unassigned) [Example C0109]
14 | 98.1 | CO/N=C1\C[C@@H]([C@H](C)O)N(C(=O)c2ccc(-c3cccc(C#N)c3C)cc2)C1 (single isomer, unassigned) [Example C0110]
15 | 2940 | CON=C1C[C@@H](CO)N(C(=O)c2ccc3c(c2)COCc2c(C#N)cccc2-3)C1 (single isomer, unassigned) [Example C0142, (Z/E)-9-(2-(Hydroxymethyl)-4-(methoxyimino)pyrrolidine-1-carbonyl)-5,7-dihydrodibenzo[c,e]oxepine-4-carbonitrile]
